The text below walks through data of patent US5830863A, “Neurokinin A antagonists” (priority 1996, dated 1998).

Experiment [1] addresses T1, neurokinin A (NKA) receptor (NK-2) (Mesocricetus auratus, UniProt P51144).
T1 construct: displace I125 labeled NKA from hamster urinary bladder; from tissue; host or cells: hamster urinary bladder (membranes in A1, chopped tissue in A4)
T1 sequence (P51144 1-384): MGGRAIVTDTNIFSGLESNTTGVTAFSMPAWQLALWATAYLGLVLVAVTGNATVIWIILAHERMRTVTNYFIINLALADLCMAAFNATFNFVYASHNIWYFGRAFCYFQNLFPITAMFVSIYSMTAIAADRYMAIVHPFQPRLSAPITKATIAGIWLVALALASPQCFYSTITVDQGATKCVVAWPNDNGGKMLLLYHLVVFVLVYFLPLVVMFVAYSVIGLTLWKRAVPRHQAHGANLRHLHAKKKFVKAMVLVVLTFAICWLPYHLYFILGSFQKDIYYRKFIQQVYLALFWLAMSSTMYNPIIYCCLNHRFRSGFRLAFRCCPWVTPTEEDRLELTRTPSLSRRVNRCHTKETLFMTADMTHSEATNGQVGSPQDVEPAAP
The experiment can be described thus: displacement of I125 labeled NKA from hamster urinary bladder membranes. It counts as binding. The text has this: The abscissa (x-axis) logarithmically indicates the concentration in nanomoles of agonist of antagonist of the neurokinin A (NKA) receptor. The ordinate (Y-axis) indicates the observed specific binding for each tested agonist or antagonist measured as a percentage of maximum specific binding.
Agonists tested were NKA and fragments of NKA consisting of the third to tenth (NKA(3-10)) amino acids and the fourth to tenth (NKA(4-10)) amino acids. Values are MEAN±S.E.M. of 6-12 experiments. IC50 values estimated graphically from 50% inhibition point.
Urinary bladders from several hamsters were pooled, minced, and homogenized in 50 mM TRIS-HCl (pH 7.4) containing 120 mM NaCl and 5 mM KCl at 4° C. and centrifuged at 48,000×g for 15 minutes. The pellet was resuspended for 30 minutes in 50 mM TRIS-HCl (pH 7.4) containing 10 mM EDTA and 300 mM KCl at 4° C. The suspension was centrifuged as above and the pellet was washed two times in plain 50 mM TRIS-HCl (pH 7.4) and centrifuged similarly. The tissue was then resuspended in incubation buffer and an aliquot (approximately 3-5 mg tissue) was added to each assay tube to commence the assay. The assay tubes contained incubation buffer consisting of 50 mM TRIS-HCl (pH 7.4), 0.02% BSA, 40 μg/ml bacitracin, 4 μg/ml chymostatin, 4 μg/ml leupeptin, 2 mM MnCl2, 0.1 nM ^125 iodohistidyl^1 -neurokinin A (Amersham Corp.), and concentrations of the title compounds or standards ranging from 0.03 nM to 100 μM. The assay was allowed to proceed to equilibrium for 120 min at room temperature. After this time, the contents of each tube was rapidly filtered over Whatman GF/B filters presoaked in 0.5% BSA and the filters were rapidly washed two times with ice-cold plain 50 mM TRIS-HCl (pH 7.4). Filter-bound radioactivity was quantitated in a gamma counter. Specific binding (maximum) was defined as the difference between binding in the presence and absence of 1 μM unlabeled neurokinin A. Competition of iodinated neurokinin A binding by test compounds or standards was expressed as a percentage of this maximum competition.
Values given indicate the concentration in nanomoles of antagonist to reach the IC50 of the neurokinin A (NKA) receptor. SKLKB82#3 represents a cloned NK-2 receptor cell line; the sample is prepared from the scraped cell pellet for assay as earlier described for the hamster urinary bladder preparations. NK-1 represents a substance P receptor preparation from rat salivary gland; receptors are prepared as earlier described for the hamster urinary bladder preparations. Blank spaces indicate compound has not been tested in that particular assay.

Experiment [2] concerns the target T2, NK-1 (substance P receptor) (Rattus norvegicus, UniProt P14600).
T2 construct: substance P receptor preparation from rat salivary gland; from tissue; host or cells: rat salivary gland
Description: NK-1 substance P receptor preparation from rat salivary gland, binding. The method, then: (§1) Values given indicate the concentration in nanomoles of antagonist to reach the IC50 of the neurokinin A (NKA) receptor. SKLKB82#3 represents a cloned NK-2 receptor cell line; the sample is prepared from the scraped cell pellet for assay as earlier described for the hamster urinary bladder preparations. NK-1 represents a substance P receptor preparation from rat salivary gland; receptors are prepared as earlier described for the hamster urinary bladder preparations.

The target in experiment [3] is T3, cloned NK-2 receptor (SKLKB82#3 cell line) (Bos taurus, UniProt P05363).
T3 construct: expressed in transfected cells; host or cells: SKLKB82#3 cell line (scraped cell pellet)
T3 sequence (P05363 1-384): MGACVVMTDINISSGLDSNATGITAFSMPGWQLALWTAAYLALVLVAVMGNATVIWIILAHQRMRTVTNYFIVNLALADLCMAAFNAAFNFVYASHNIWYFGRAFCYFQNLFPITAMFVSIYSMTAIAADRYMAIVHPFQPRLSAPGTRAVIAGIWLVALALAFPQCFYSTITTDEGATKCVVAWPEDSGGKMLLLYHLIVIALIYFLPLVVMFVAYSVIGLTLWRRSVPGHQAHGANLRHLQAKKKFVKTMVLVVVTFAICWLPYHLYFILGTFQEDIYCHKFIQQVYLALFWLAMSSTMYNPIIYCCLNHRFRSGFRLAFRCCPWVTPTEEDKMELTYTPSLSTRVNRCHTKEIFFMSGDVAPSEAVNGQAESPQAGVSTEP
Description: I125 NKA binding to SKLKB82#3 cloned NK-2 receptor cell line. As to the method:
as §1

Setting [4] is: cloned NK-2 receptor cell line, scraped cell pellet, read-out: SKLKB82#3 IC50.

Where two headings read alike, the source gives them in different places. Residues, ends and D or L forms follow the SMILES beside them.

T2 sequence (P14600 whole entry): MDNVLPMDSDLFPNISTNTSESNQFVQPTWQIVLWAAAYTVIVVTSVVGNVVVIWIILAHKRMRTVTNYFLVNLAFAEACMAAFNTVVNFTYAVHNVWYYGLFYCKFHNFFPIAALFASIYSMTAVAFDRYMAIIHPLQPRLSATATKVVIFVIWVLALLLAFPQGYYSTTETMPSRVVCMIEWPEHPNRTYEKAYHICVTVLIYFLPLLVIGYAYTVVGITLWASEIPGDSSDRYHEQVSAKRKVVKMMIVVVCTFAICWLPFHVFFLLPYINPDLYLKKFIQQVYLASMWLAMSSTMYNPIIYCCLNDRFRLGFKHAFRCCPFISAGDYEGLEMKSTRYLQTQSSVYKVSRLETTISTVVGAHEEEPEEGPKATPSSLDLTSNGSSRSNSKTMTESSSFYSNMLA

`CSCC[C@H](NC[C@H](CC(C)C)NC(=O)CNC(=O)[C@@H](NC(=O)[C@H](Cc1ccccc1)NC(=O)[C@H](CO)NC(=O)[C@@H](N)CC(=O)O)C(C)C)C(N)=O` [MDL 29,646, Asp--Ser--Phe--Val--Gly--Leu(.psi.(CH2 NH))Met--NH2] (HELM PEPTIDE1{D.S.F.V.G.[CSCC[C@H](NC[C@H](CC(C)C)N[*:1])C(N)=O]}$$$$V2.0): the figures for the IC50 in experiment [1] and in experiment [2] were 0.05 ± 0.005 µM and greater than 10 µM, respectively.
The molecule `CC(C)C[C@H](NC(=O)[C@H](CC(C)C)NC(=O)CNC(=O)[C@H](C(C)C)N(C)C[C@H](Cc1ccccc1)NC(=O)[C@H](CO)NC(=O)[C@@H](N)CC(=O)O)C(N)=O` [MDL 29,678, Asp--Ser--Phe[.psi.(CH2 NCH3)]Val--Gly--Leu--Leu--NH2] (HELM PEPTIDE1{D.S.[CC(C)[C@@H](C(=O)[*:2])N(C)C[C@H](Cc1ccccc1)N[*:1]].G.L.L.[am]}$$$$V2.0) had an IC50 in experiment [1] greater than 10 µM.
With `CC(C)C[C@H](NC(=O)[C@H](CC(C)C)N(C)CCNC(=O)[C@@H](NC(=O)[C@H](Cc1ccccc1)NC(=O)[C@H](CO)NC(=O)[C@@H](N)CC(=O)O)C(C)C)C(N)=O` [MDL 102,369, Asp--Ser--Phe--Val--Gly[.psi.CH2 NCH3)]Leu--Leu--NH2] (HELM PEPTIDE1{D.S.F.V.[CC(C)C[C@@H](C(=O)[*:2])N(C)CCN[*:1]].L.[am]}$$$$V2.0), the IC50 in experiment [1] is greater than 10 µM.
`CC(C)C[C@H](NC(=O)[C@H](CC(C)C)NC(=O)CNC(=O)[C@@H](NC(=O)[C@H](Cc1ccccc1)NC(=O)[C@H](CO)NCCCC(=O)O)C(C)C)C(N)=O` [MDL 101,905, Suc[.psi.(CH2 NH)]Ser--Phe--Val--Gly--Leu--Leu--NH2] (HELM PEPTIDE1{[O=C(O)CCCN[C@@H](CO)C(=O)[*:2]].F.V.G.L.L.[am]}$$$$V2.0) returned an IC50 in experiment [1] of 2 µM.
In turn, `CC(C)C[C@H](NC(=O)[C@H](CC(C)C)NC(=O)CN(C)C[C@@H](NC(=O)[C@H](Cc1ccccc1)NC(=O)[C@H](CO)NC(=O)[C@@H](N)CC(=O)O)C(C)C)C(N)=O` [MDL 29,712, Asp--Ser--Phe--Val[.psi.(CH2 NCH3)]Gly--Leu--Leu--NH2] (HELM PEPTIDE1{D.S.F.[CC(C)[C@@H](CN(C)CC(=O)[*:2])N[*:1]].L.L.[am]}$$$$V2.0) displayed an IC50 in experiment [1] greater than 5 µM.
With `CC(C)C[C@@H](CO)NC[C@H](CC(C)C)NC(=O)CNC(=O)[C@@H](NC(=O)[C@H](Cc1ccccc1)NC(=O)[C@H](CO)NC(=O)[C@@H](N)CC(=O)O)C(C)C` [MDL 102,678, Asp--Ser--Phe--Val--Gly--Leu[.psi.(CH2 NH)]Leu--CH2 OH] (HELM PEPTIDE1{D.S.F.V.G.[CC(C)C[C@@H](CO)NC[C@H](CC(C)C)N[*:1]]}$$$$V2.0), the half-maximal inhibitory concentration (IC50) in experiment [1] and in experiment [3] (setting [4]) was greater than 10 µM in each case.
For `CC(C)C[C@@H](CN[C@@H](CC(C)C)C(N)=O)NC(=O)CCNC(=O)[C@@H](NC(=O)[C@H](Cc1ccccc1)NC(=O)[C@H](CO)NC(=O)[C@@H](N)CC(=O)O)C(C)C` [MDL 102,500, Asp-Ser-Phe-Val-β-Ala-Leu(.PSI.(CH2 NH))Leu-NH2] (HELM PEPTIDE1{D.S.F.V.[bAla].[CC(C)C[C@@H](CN[C@@H](CC(C)C)C(N)=O)N[*:1]]}$$$$V2.0), the concentration for half-maximal inhibition (IC50) in experiment [1] worked out at 0.019 ± 0.003 µM.
Consider `CCN(C[C@H](CC(C)C)NC(=O)CNC(=O)[C@@H](NC(=O)[C@H](Cc1ccccc1)NC(=O)[C@H](CO)NC(=O)[C@@H](N)CC(=O)O)C(C)C)[C@@H](CC(C)C)C(N)=O` [MDL 29,716, Asp-Ser-Phe-Val-Gly-Leu(.PSI.(CH2 NCH2 CH3))Leu-NH2] (HELM PEPTIDE1{D.S.F.V.G.[CCN(C[C@H](CC(C)C)N[*:1])[C@@H](CC(C)C)C(N)=O]}$$$$V2.0), for which the values for the IC50 in experiment [1] and in experiment [3] (setting [4]) were 0.257 ± 0.03 µM and 4.73 ± 0.393 µM, respectively.
As for `CC(C)C[C@@H](CN[C@@H](Cc1ccccc1)C(N)=O)NC(=O)CNC(=O)[C@@H](NC(=O)[C@H](Cc1ccccc1)NC(=O)[C@H](CO)NC(=O)[C@@H](N)CC(=O)O)C(C)C` [MDL 101,382, Asp--Ser--Phe--Val--Gly--Leu(.psi.(CH2 NH))Phe--NH2] (HELM PEPTIDE1{D.S.F.V.G.[CC(C)C[C@@H](CN[C@@H](Cc1ccccc1)C(N)=O)N[*:1]]}$$$$V2.0), the IC50 in experiment [1] was 0.005 µM; in experiment [3], 0.2 µM.
For `CC(C)C[C@H](NC(=O)[C@H](CC(C)C)NC(=O)CNC[C@@H](NC(=O)[C@H](Cc1ccccc1)NC(=O)[C@H](CO)NC(=O)[C@@H](N)CC(=O)O)C(C)C)C(N)=O` [MDL 29,882, Asp--Ser--Phe--Val[.psi.(CH2 NH)]Gly--Leu--Leu--NH2], the results for the IC50 in experiment [1] and in experiment [2] were greater than 5 µM and greater than 100 µM, respectively.
Turning to `CCCN(C[C@H](CC(C)C)NC(=O)CNC(=O)[C@@H](NC(=O)[C@H](Cc1ccccc1)NC(=O)[C@H](CO)NC(=O)[C@@H](N)CC(=O)O)C(C)C)[C@@H](CC(C)C)C(N)=O` [MDL 102,863, Asp-Ser-Phe-Val-Gly-Leu(.PSI.(CH2 N(CH2)2 CH3))Leu-NH2] (HELM PEPTIDE1{D.S.F.V.G.[CCCN(C[C@H](CC(C)C)N[*:1])[C@@H](CC(C)C)C(N)=O]}$$$$V2.0), the IC50 in experiment [1] is 0.103 ± 0.013 µM.
